Test results: patent US10029984B2, “Mono- or di-substituted indole derivatives as dengue viral replication inhibitors” (Janssen Pharmaceuticals, Inc., priority 2015, dated 2018)

Tests used:
[1] = system: DENV-4 strains H241; experiment: Tetravalent RT-qPCR assay Protocol A, serotype 4; format: cell-based; settings: Dengue virus, DENV4, 72 h; RT-qPCR serotype 4 H241, Vero cells, day 3
Experimental: (§1) The antiviral activity of the compounds of the invention was tested against DENV-1 strain TC974#666 (NCPV; Table 6), DENV-2 strain 16681 (Table 7), DENV-3 strain H87 (NCPV; Table 8) and DENV-4 strains H241 (NCPV; Table 9) in a RT-qPCR assay. Therefore, Vero cells were infected with either DENV-1, or -2, or -3, or -4 in the presence or absence of test compounds. At day 3 post-infection, the cells were lysed and cell lysates were used to prepare cDNA of both a viral target (the 3′UTR of DENV; table 2) and a cellular reference gene (β-actin, table 2). Subsequently, a duplex real time PCR was performed on a Lightcycler480 instrument. The generated Cp value is inversely proportional to the amount of RNA expression of these targets. Inhibition of DENV replication by a test compound result in a shift of Cp's for the 3′UTR gene. On the other hand, if a test compound is toxic to the cells, a similar effect on β-actin expression will be observed. The comparative ΔΔCp method is used to calculate EC50, which is based on the relative gene expression of the target gene (3′UTR) normalized with the cellular housekeeping gene (β-actin).
(§2) The culture medium consisted of minimal essential medium supplemented with 2% of heat-inactivated fetal calf serum, 0.04% gentamycin (50 mg/mL) and 2 mM of L-glutamine. Vero cells, obtained from ECACC, were suspended in culture medium and 75 μL/well was added in 96-well plates (10000 cells/well), which already contain the antiviral compounds. Typically, these plates contain a 4-fold serial dilution of 9 dilution steps of the test compound at 200 times the final concentration in 100% DMSO (500 nL; final concentration range: 25 μM-0.00038 μM). In addition, each plate contains wells which are assigned as virus controls (containing cells and virus in the absence of compound) and cell controls (containing cells in the absence of virus and compound). Once the cells were added in the plates, the plates were incubated in a fully humidified incubator (37° C., 5% CO2) until the next day. Then, DENV-1 strain TC974#666 at an MOI of 0.6, DENV-2 strain 16681 at an MOI of 0.01, DENV-3 strain H87 at an MOI of 1.0 and DENV-4 strains H241 at an MOI of 0.2 and SG/06K2270DK1/2005 at an MOI of 0.16, were added. Therefore, 25 μL of virus suspension was added to all the wells containing test compound and to the wells assigned as virus control. In parallel, 25 μL of culture medium was added to the cell controls. Next, the plates were incubated for 3 days in a fully humidified incubator (37° C., 5% CO2). After 3 days, the supernatant was removed from the wells and the cells were washed twice with ice-cold PBS (˜100 μL). The cell pellets within the 96-well plates were stored at −80° C. for at least 1 day. Next, RNA was extracted using the Cells-to-CT™ lysis kit, according to the manufacture's guideline (Applied Biosystems). The cell lysates can be stored at −80° C. or immediately used in the reverse transcription step.
(§3) In preparation of the reverse transcription step, mix A (table 3A) was prepared and 7.57 μL/well was dispensed in a 96-well plate. After addition of 5 μL of the cell lysates, a five minute denaturation step at 75° C. was performed (table 3B). Afterwards, 7.43 μL of mix B was added (table 3C) and the reverse transcription step was initiated (table 3D) to generate cDNA.
(§4) Finally, a RT-qPCR mix was prepared, mix C (table 4A), dispensed in 96-well LightCycler qPCR plates to which 3 μL of cDNA was added and the qPCR was performed according to the conditions in table 4B on a LightCycler 480. Using the LightCycler software and an in-house LIMS system, dose response curves for each compound were calculated and the half maximal effective concentration (EC50) and the half maximal cytotoxic concentration (CC50) were determined.

[2] = system: DENV-2 16681 strain; experiment: DENV-2 antiviral assay (eGFP-labeled virus in Vero cells); format: cell-based, Dengue virus; settings: DENV-2 16681 eGFP, MOI 0.5, 3 days
Experimental: The antiviral activity of all the compounds of the invention was tested against DENV-2 16681 strain which was labeled with enhanced green fluorescent protein (eGPF; Table 1). The culture medium consists of minimal essential medium supplemented with 2% of heat-inactivated fetal calf serum, 0.04% gentamycin (50 mg/mL) and 2 mM of L-glutamine. Vero cells, obtained from ECACC, were suspended in culture medium and 25 μL was added to 384-well plates (2500 cells/well), which already contain the antiviral compounds. Typically, these plates contain a 4-fold serial dilution of 9 dilution steps of the test compound at 200 times the final concentration in 100% DMSO (200 nL). In addition, each compound concentration is tested in quadruplicate (final concentration range: 25 μM-0.00038 μM). Finally, each plate contains wells which are assigned as virus controls (containing cells and virus in the absence of compound), cell controls (containing cells in the absence of virus and compound) and medium controls (containing medium in the absence of cells, virus and compounds). To the wells assigned as medium control, 25 μL of culture medium was added instead of Vero cells. Once the cells were added to the plates, the plates were incubated for 30 minutes at room temperature to allow the cells to distribute evenly within the wells. Next, the plates were incubated in a fully humidified incubator (37° C., 5% CO2) until the next day. Then, DENV-2 strain 16681, labeled with eGFP, was added at a multiplicity of infection (MOI) of 0.5. Therefore, 15 μL of virus suspension was added to all the wells containing test compound and to the wells assigned as virus control. In parallel, 15 μL of culture medium was added to the medium and cell controls. Next, the plates were incubated for 3 days in a fully humidified incubator (37° C., 5% CO2). At the day of the read out, the eGFP fluorescence was measured using an automated fluorescence microscope at 488 nm (blue laser). Using an in-house LIMS system, inhibition dose response curves for each compound were calculated and the half maximal effective concentration (EC50) was determined. Therefore, the percent inhibition (I) for every test concentration is calculated using the following formula: I=100*(ST−SCC)/(SVC−SCC); ST, SCC and SVC are the amount of eGFP signal in the test compound, cell control and virus control wells, respectively. The EC50 represents the concentration of a compound at which the virus replication is inhibited with 50%, as measured by a 50% reduction of the eGFP fluorescent intensity compared to the virus control. The EC50 is calculated using linear interpolation.

[3] = system: DENV-3 strain H87; experiment: Tetravalent RT-qPCR assay Protocol A, serotype 3; format: cell-based; settings: Dengue virus, DENV3, 72 h; RT-qPCR serotype 3 H87, Vero cells, day 3
Experimental: as §1, §2, §3, §4

[4] = system: DENV-2 strain 16681; experiment: Tetravalent RT-qPCR assay Protocol A, serotype 2; format: cell-based; settings: Dengue virus, DENV2, 72 h; RT-qPCR serotype 2 16681, Vero cells, day 3
Experimental: as §1, §2, §3, §4

[5] = system: Vero cells; experiment: in vitro; format: cell-based; settings: African green monkey
Experimental: (§5) In parallel, the toxicity of the compounds was assessed on the same plates. Once the read-out for the eGFP signal was done, 10 μL of resazurin, a cell viability stain, was added to all wells of the 384-well plates. The resazurin assay is based on the reduction of the blue resazurin by NADH, produced by the cells, into the highly fluorescent product, resorufin. The formation of pink fluorescent resorufin is directly related to the number of viable cells in the well. The plates were incubated for an additional 5 hours in a fully humidified incubator (37° C., 5% CO2). Next, the plates were measured on an Infinite reader (Tecan) using an excitation wavelength of 530 nm. The half maximal cytotoxic concentration (CC50) was also determined, defined as the concentration required to reduce the resazurin conversion by 50% compared to that of the cell control wells. Finally, the selectivity index (SI) was determined for the compounds, which was calculated as followed: SI=CC50/EC50.

[6] = in vitro; format: cell-based; settings: African green monkey, CC50
Experimental: as §1, §2, §4

[7] = system: DENV-1 strain TC974#666; experiment: Tetravalent RT-qPCR assay Protocol A, serotype 1; format: cell-based; settings: Dengue virus, DENV1, 72 h; RT-qPCR serotype 1 TC974#666, Vero cells, day 3
Experimental: as §1, §2, §3, §4

[8] = in vitro; format: cell-based; settings: African green monkey, CC50; remark: listed apart in the source
Experimental: as §5

COc1cc(NC(C(=O)c2c[nH]c3cc(F)ccc23)c2ccc(F)cc2OC)cc(S(C)(=O)=O)c1 (single isomer, unassigned) [Enantiomer 1A, 1-(6-fluoro-1H-indol-3-yl)-2-(4-fluoro-2-methoxyphenyl)-2-((3-methoxy-5-(methylsulfonyl)phenyl)amino)ethanone]
EC50 [1]: 165 nM | EC50 ([2]; listed as 1A*): 0.88 nM | EC50 [3]: 49.6 nM | EC50 [4]: 0.83 nM | CC50 [5]: 5900 nM | CC50 at 3 days [6]: 3520 nM | EC50 [7]: 5.18 nM

COc1cc(NC(C(=O)c2c[nH]c3c(C)c(Cl)ccc23)c2ccc(F)cc2OC)cc(S(C)(=O)=O)c1 (single isomer, unassigned) [Enantiomer 3A, 1-(6-chloro-7-methyl-1H-indol-3-yl)-2-(4-fluoro-2-methoxyphenyl)-2-((3-methoxy-5-(methylsulfonyl)phenyl)amino)ethanone]
EC50 [1]: 121 nM | EC50 ([2]; listed as 3A*): 0.3 nM | EC50 [3]: 58.6 nM | EC50 [4]: 0.285 nM | CC50 [5]: 4800 nM | CC50 at 3 days [6]: 3910 nM | EC50 [7]: 7.18 nM

COc1cc(NC(C(=O)c2c[nH]c3cc(Cl)ccc23)c2ccc(F)cc2OC)cc(S(C)(=O)=O)c1 (single isomer, unassigned) [Enantiomer 4A, 1-(6-chloro-1H-indol-3-yl)-2-(4-fluoro-2-methoxyphenyl)-2-((3-methoxy-5-(methylsulfonyl)phenyl)amino)ethanone]
EC50 [1]: 131 nM | EC50 ([2]; listed as 4A*): 0.5 nM | EC50 [3]: 55.3 nM | EC50 [4]: 0.377 nM | CC50 [5]: 4400 nM | CC50 at 3 days [6]: 3590 nM | EC50 [7]: 4.22 nM

COc1cc(NC(C(=O)c2c[nH]c3cc(OC)ccc23)c2ccc(F)cc2OC)cc(S(C)(=O)=O)c1 (single isomer, unassigned) [Enantiomer 5B, 2-(4-fluoro-2-methoxyphenyl)-1-(6-methoxy-1H-indol-3-yl)-2-((3-methoxy-5-(methylsulfonyl)phenyl)amino)ethanone]
EC50 [1]: 186 nM | EC50 ([2]; listed as 5B*): 1 nM | EC50 [3]: 100 nM | EC50 [4]: 1.23 nM | CC50 [5]: > 13000 nM | EC50 [7]: 8.89 nM

COc1cc(NC(C(=O)c2c[nH]c3c(F)cc(C)cc23)c2ccc(F)cc2OC)cc(S(C)(=O)=O)c1 (single isomer, unassigned) [Enantiomer 6A, 2-(4-fluoro-2-methoxyphenyl)-1-(7-fluoro-5-methyl-1H-indol-3-yl)-2-((3-methoxy-5-(methylsulfonyl)phenyl)amino)ethanone]
EC50 [1]: 239 nM | EC50 ([2]; listed as 6A*): 2.7 nM | EC50 [3]: 123 nM | EC50 [4]: 3.48 nM | CC50 [5]: 5000 nM | CC50 at 3 days [6]: 4610 nM | EC50 [7]: 9.7 nM

COc1cc(NC(C(=O)c2c[nH]c3cc(F)c(F)cc23)c2ccc(F)cc2OC)cc(S(C)(=O)=O)c1 (single isomer, unassigned) [Enantiomer 7A, 1-(5,6-difluoro-1H-indol-3-yl)-2-(4-fluoro-2-methoxyphenyl)-2-((3-methoxy-5-(methylsulfonyl)phenyl)amino)ethanone]
EC50 [1]: 142 nM | EC50 ([2]; listed as 7A*): 0.76 nM | EC50 [3]: 61.6 nM | EC50 [4]: 0.525 nM | CC50 [5]: 4400 nM | CC50 at 3 days [6]: 3870 nM | EC50 [7]: 3.7 nM

COc1cc(NC(C(=O)c2c[nH]c3c(C)cc(F)cc23)c2ccc(F)cc2OC)cc(S(C)(=O)=O)c1 (single isomer, unassigned) [Enantiomer 8A, 2-(4-fluoro-2-methoxyphenyl)-1-(5-fluoro-7-methyl-1H-indol-3-yl)-2-((3-methoxy-5-(methylsulfonyl)phenyl)amino)ethanone]
EC50 [1]: 248 nM | EC50 ([2]; listed as 8A*): 1 nM | EC50 [3]: 82.1 nM | EC50 [4]: 1.27 nM | CC50 [5]: 5100 nM | CC50 at 3 days [6]: 4400 nM | EC50 [7]: 6.83 nM

COc1cc(NC(C(=O)c2c[nH]c3c(Cl)c(OC)ccc23)c2ccc(F)cc2OC)cc(S(C)(=O)=O)c1 (single isomer, unassigned) [Enantiomer 12A, 1-(7-chloro-6-methoxy-1H-indol-3-yl)-2-(4-fluoro-2-methoxyphenyl)-2-((3-methoxy-5-(methylsulfonyl)phenyl)amino)ethanone]
EC50 [1]: 261 nM | EC50 ([2]; listed as 12A*): 0.42 nM | EC50 [3]: 73.8 nM | EC50 [4]: 0.25 nM | CC50 [8]: > 25000 nM | EC50 [7]: 14 nM
